Test results as given in ChEMBL document CHEMBL3227961, “Antileukemic activity of substituted ureidothiazoles, ureidothiadiazoles, and related compounds” (J Med Chem, 1979).
Calls of active or inactive are those of the source. The rule behind the calls is not given here.

Assays:
[1] = test system: P388; experiment: Antitumor activity against mouse P388 cells allografted in BDF1 mouse assessed as tumor growth inhibition at 400 mg/kg administered as qd for 1 to 9 days relative to control; format: functional
[2] = test system: P388; experiment: Antitumor activity against mouse P388 cells allografted in BDF1 mouse assessed as tumor growth inhibition at 100 mg/kg administered as qd for 1 to 9 days relative to control; format: functional
[3] = test system: P388; experiment: Antitumor activity against mouse P388 cells allografted in BDF1 mouse assessed as tumor growth inhibition at 200 mg/kg administered as qd for 1 to 9 days relative to control; format: functional
[4] = test system: P388; experiment: Antitumor activity against mouse P388 cells allografted in BDF1 mouse assessed as survival at 100 mg/kg administered as qd for 1 to 9 days; format: functional, organism-based; set-up: dose 100 mg/kg
[5] = test system: P388; experiment: Antitumor activity against mouse P388 cells allografted in BDF1 mouse assessed as survival at 400 mg/kg administered as qd for 1 to 9 days; format: functional, organism-based; set-up: dose 400 mg/kg
[6] = test system: P388; experiment: Antitumor activity against mouse P388 cells allografted in BDF1 mouse assessed as survival at 200 mg/kg administered as qd for 1 to 9 days; format: functional, organism-based; set-up: dose 200 mg/kg
[7] = test system: P388; experiment: Antitumor activity against mouse P388 cells allografted in BDF1 mouse assessed as tumor growth inhibition at 25 mg/kg administered as qd for 1 to 9 days relative to control; format: functional
[8] = test system: P388; experiment: Antitumor activity against mouse P388 cells allografted in BDF1 mouse assessed as survival at 12.5 mg/kg administered as qd for 1 to 9 days; format: functional, organism-based; set-up: dose 12.5 mg/kg
[9] = test system: P388; experiment: Antitumor activity against mouse P388 cells allografted in BDF1 mouse assessed as tumor growth inhibition at 50 mg/kg administered as qd for 1 to 9 days relative to control; format: functional
[10] = test system: P388; experiment: Antitumor activity against mouse P388 cells allografted in BDF1 mouse assessed as survival at 50 mg/kg administered as qd for 1 to 9 days; format: functional, organism-based; set-up: dose 50 mg/kg
[11] = test system: P388; experiment: Antitumor activity against mouse P388 cells allografted in BDF1 mouse assessed as tumor growth inhibition at 12.5 mg/kg administered as qd for 1 to 9 days relative to control; format: functional
[12] = test system: P388; experiment: Antitumor activity against mouse P388 cells allografted in BDF1 mouse assessed as survival at 25 mg/kg administered as qd for 1 to 9 days; format: functional, organism-based; set-up: dose 25 mg/kg
[13] = test system: L1210; experiment: Antitumor activity against mouse L1210 cells allografted in BDF1 mouse assessed as tumor growth inhibition at 200 mg/kg administered as qd for 1 to 9 days relative to control; format: functional
[14] = test system: B16; experiment: Antitumor activity against mouse B16 cells allografted in BDF1 mouse assessed as tumor growth inhibition at 25 mg/kg administered as qd for 1 to 9 days relative to control; format: functional
[15] = test system: B16; experiment: Antitumor activity against mouse B16 cells allografted in BDF1 mouse assessed as tumor growth inhibition at 100 mg/kg administered as qd for 1 to 9 days relative to control; format: functional
[16] = test system: Lewis lung carcinoma cell line; experiment: Antitumor activity against mouse LLC cells allografted in BDF1 mouse assessed as tumor growth inhibition; format: functional
[17] = test system: B16; experiment: Antitumor activity against mouse B16 cells allografted in BDF1 mouse assessed as tumor growth inhibition at 50 mg/kg administered as qd for 1 to 9 days relative to control; format: functional
[18] = test system: B16; experiment: Antitumor activity against mouse B16 cells allografted in BDF1 mouse assessed as tumor growth inhibition at 400 mg/kg administered as qd for 1 to 9 days relative to control; format: functional
[19] = test system: B16; experiment: Antitumor activity against mouse B16 cells allografted in BDF1 mouse assessed as tumor growth inhibition at 200 mg/kg administered as qd for 1 to 9 days relative to control; format: functional
[20] = test system: Mus musculus; experiment: Toxicity in mouse B16 cells allografted in BDF1 mouse at 6.25 to 50 mg/kg administered as qd for 1 to 9 days; format: organism-based
[21] = test system: B16; experiment: Antitumor activity against mouse B16 cells allografted in BDF1 mouse assessed as tumor growth inhibition at 6.25 to 50 mg/kg administered as qd for 1 to 9 days relative to control; format: functional, organism-based

| SMILES | T/C [2] [%] | T/C [3] [%] | Activity [4] | Activity [6] | T/C [7] [%] | T/C [9] [%] | Activity [10] | other results |
| --- | --- | --- | --- | --- | --- | --- | --- | --- |
| CCOC(=O)c1ccc(NC(=S)Nc2nccs2)cc1 | 95 | 92 | Active |  |  |  |  | T/C [1]: 92% |
| CCOC(=O)c1ccc(NC(=O)NC2=NCCS2)cc1 |  | 87 |  | Active |  |  |  | T/C [1]: 92%; Activity [5]: Active |
| O=C(Nc1ccc([N+](=O)[O-])cc1)Nc1nccs1 |  |  |  |  | 127 | 142 | Active | Activity [8]: Active; T/C [11]: 112%; Activity [12]: Active |
| CCOC(=O)c1ccc(NC(=O)Nc2nc3ccc(OC)cc3s2)cc1 |  | 89 |  | Active |  |  |  | T/C [1]: 89%; Activity [5]: Active |
| CCOC(=O)c1ccc(NC(=O)Nc2nnn[nH]2)cc1 |  | 100 |  | Active |  |  |  | T/C [1]: 108%; Activity [5]: Active |
| N#Cc1ccc(NC(=O)Nc2nncs2)cc1 | 140 | 146 | Active |  | 122 | 131 | Active | Activity [12]: Active |
| CCOC(=O)c1ccc(NC(=O)Nc2nc3ccccc3s2)cc1 |  | 90 |  | Active |  |  |  | T/C [1]: 90%; Activity [5]: Active |
| CCOC(=O)c1ccc(NC(=O)Nc2nc(C)cs2)cc1 | 127 | 138 | Active | Active |  | 109 | Active |  |
| O=C(Nc1ccc([N+](=O)[O-])cc1)Nc1nncs1 | 124 | 132 | Active |  |  |  |  | T/C [1]: 142% |
| CCOC(=O)c1ccc(NC(=O)Nc2nccs2)cc1 | 143 | 162 | Active |  | 145 | 149 | Active | T/C [13]: 125%; T/C [14]: 134%; T/C [15]: 166%; TGI [16]: inactive; T/C [17]: 147%; T/C [18]: 153%; T/C [19]: 167%; Activity [12]: Active |
| O=C(Nc1nccs1)C(F)(F)F | 104 | 99 | Active |  |  |  |  | T/C [1]: 108%; Activity [5]: Active |
| Cc1ccc(S(=O)(=O)NC(=O)Nc2nccs2)cc1 | 106 | 99 | Active | Active |  |  |  |  |
| CCOC(=O)c1ccc(NC(=O)Nc2scc[n+]2C)cc1.COS(=O)(=O)[O-] | 100 | 90 | Active |  |  |  |  |  |
| O=C(Nc1ccccc1)Nc1nccs1 | 96 | 93 | Active | Active |  |  |  |  |
| O=C(Nc1ccc(Cl)cc1)Nc1nccs1 | 118 |  | Active |  |  | 111 | Active |  |
| O=C(Nc1ccc(C(=O)O)cc1)Nc1nccs1 | 150 | 163 | Active | Active | 125 | 143 | Active | Activity [12]: Active |
| O=C(Nc1nncs1)C(F)(F)F |  |  |  |  | 130 | 161 | Active | Activity [8]: Active; T/C [11]: 110% |
| CCOC(=O)Nc1nncs1 | 142 | 151 | Active | Active | 108 | 132 | Active | Activity [12]: Active |
| CCOC(=O)Nc1nccs1 | 102 | 108 | Active | Active |  |  |  |  |
| Cc1ccc(NC(=O)Nc2nccs2)cc1 | 99 | 105 | Active | Active |  |  |  |  |
| O=C(Nc1ccccc1)Nc1nncs1 |  |  |  |  | 104 |  |  | Activity [8]: Active; T/C [11]: 104%; Activity [12]: Active |
| CNC(=O)Nc1nccs1 | 96 | 97 |  | Active |  | 105 | Active |  |
| O=C(CCl)Nc1nncs1 | 104 | 100 | Active | Active |  |  |  |  |
| CCOC(=O)c1ccc(NC(=O)Nc2nncs2)cc1 | 134 |  | Active |  | 132 | 138 | Active | Activity [8]: Active; Activity [20]: Non-toxic; T/C [11]: 119%; Activity [12]: Active; TGI [21]: inactive |
| CCOC(=O)c1ccc(NC(=O)Nc2nnc(NC(=O)Nc3ccc(C(=O)OCC)cc3)[nH]2)cc1 | 88 |  | Active |  |  | 89 | Active |  |
| O=C(CCl)Nc1nccs1 | 116 |  | Active |  |  | 103 | Active |  |
| N#Cc1ccc(NC(=O)Nc2nccs2)cc1 | 160 |  |  |  | 124 | 132 | Active | Activity [12]: Active |
